Earlier results on five compounds are cited in US12329849B2, “Method for dyeing keratinous material, comprising the use of an organosilicon compound, a dyeing compound, a sealing reagent, and a polymer-containing post-treatment agent” (Henkel AG & Co. KGaA, priority 2021, dated 2025).

For the compound `CCN(Cc1cccc(S(=O)(=O)[O-])c1)c1ccc(C(=C2C=CC(=[N+](CC)Cc3cccc(S(=O)(=O)[O-])c3)C=C2)c2ccccc2S(=O)(=O)[O-])cc1.[Na+].[Na+]` [Acid Blue 9], the water solubility entry (25° C.) is “more than 20 wt %”.

Regarding `O=S(=O)([O-])c1ccc(N=Nc2c(O)ccc3ccccc23)cc1.[Na+]` [Acid Orange 7, sodium salt of 4-[(2-hydroxy-1-naphthyl)azo]benzenesulfonate], the solubility in water result (25° C.) is “more than 7 g/l”. For the compound `Nc1cc(S(=O)(=O)[O-])cc2cc(S(=O)(=O)[O-])c(N=Nc3ccccc3)c(O)c12.[Na+].[Na+]` [Acid Red 33, disodium salt of 5-amino-4-hydroxy-3-(phenylazo)-naphthalene-2,7-disulfonate], the solubility in water (25° C.) is 2500 µg/mL. Regarding `O=C([O-])c1c(Cl)c(Cl)c(Cl)c(Cl)c1-c1c2c(Br)cc(=O)c(Br)c-2oc2c(Br)c(O)cc(Br)c12.O=C([O-])c1c(Cl)c(Cl)c(Cl)c(Cl)c1-c1c2c(Br)cc(=O)c(Br)c-2oc2c(Br)c(O)cc(Br)c12.[Na+].[Na+]` [Acid Red 92, disodium salt of 3,4,5,6-tetrachloro-2-(1,4,5,8-tetrabromo-6-hydroxy-3-oxoxanthen-9-yl)benzoic acid], the solubility in water result (25° C.) is recorded as “greater than 10 g/l”. In the case of `O=C([O-])C1=NN(c2ccc(S(=O)(=O)[O-])cc2)C(=O)C1N=Nc1ccc(S(=O)(=O)[O-])cc1.[Na+].[Na+].[Na+]` (centres unmarked) [Acid Yellow 23, trisodium salt of 4,5-dihydro-5-oxo-1-(4-sulfophenyl)-4-((4-sulfophenyl)azo)-1H-pyrazole-3-carboxylic acid], the “solubility in water (in words)” value (at 25° C.) is on record as “readily soluble”.
